Measured values taken from patent publication US20240270744A1 (Hoffmann-La Roche Inc., priority 2021, published 2024).
Read-outs that look alike come from different tables or passages of the source.

What was measured:
h-GABA-A α2β2γ1 = h-GABA-A α2β2γ1 (Homo sapiens (Human), UniProt P47869+Q8N1C3); assay: Two-electrode voltage clamp electrophysiology in Xenopus oocytes expressing GABAA receptors; type: cell-based; conditions: α2β2γ1 GABAA receptor subtype expressing oocytes; reference PAMs
Method: Xenopus laevis oocytes at maturation stages V-VI were used for the expression of cloned mRNA encoding GABAA receptor subunits. Oocytes ready for RNA micro-injection were bought from Ecocyte, Castrop-Rauxel, Germany and stored in modified Barth's medium (composition in mM: NaCl 88, KCl 1, NaHCO3 2.4, HEPES 10, MgSO4 0.82, CaNO3 0.33, CaCl2 0.33, pH=7.5) at 20° C. until the experiment.
Oocytes were plated in 96-well plates for microinjection using the Roboinject automated instrument (MultiChannelSystems, Reutlingen, Germany). Approximately 50 nL of an aqueous solution containing the RNA transcripts for the subunits of the desired GABAA receptor subtype was injected into each oocyte. […] Oocytes were kept in modified Barth's medium (composition in mM: NaCl 88, KCl 1, NaHCO3 […], HEPES 10, MgSO4 0.82, CaNO3 0.33, CaCl2 0.33, pH=7.5) at 20° C. until the experiment.
Electrophysiological experiments were performed using the Roboocyte instrument (MultiChannelSystems, Reutlingen, Germany) on days 3 to 5 after the micro-injection of mRNA. During the experiment the oocytes were constantly superfused by a solution containing (in mM) NaCl 90, KCl 1, HEPES 5, MgCl2 1, CaCl2 1 (pH 7.4). Oocytes were impaled by two glass microelectrodes (resistance: […]) which were filled with a solution containing KCl 1M+K-acetate 1.5 M and voltage-clamped to −80 mV. The recordings were performed at room temperature using the Roboocyte two-electrode voltage clamp system (Multichannelsystem). After an initial equilibration period of 1.5 min GABA was added for 1.5 min at a concentration evoking approximately 20% of a maximal current response (EC20). After another rest interval of 2.5 min GABA was again added evoking a response of similar amplitude and shape. […] Current traces were recorded at a digitization rate of 10 Hz during and shortly before and after the GABA application.
Each compound and concentration was tested on at least 3 oocytes. Different oocytes were used for different compound concentrations.
For the analysis, the digitized current traces of the first and second GABA response were superimposed and, if necessary, rescaled to equal maximal amplitudes. The ratio between the two responses during the time interval of test compound application was calculated point by point. The extremum of the resulting “ratio trace” was taken as the efficacy (“Fold increase”) of the compound expressed as “% modulation of GABA EC20” (100*(Fold increase−1)).

[1] = biological target: human GABAA α2β2γ1 receptor (Homo sapiens (Human), UniProt P47869+Q8N1C3); assay: Radioligand binding assay, competition for [3H]RO7239181, γ1-containing GABAA subtypes; conditions: for LogSel: Log of the γ2/γ1 Ki ratio
Method: (§1) The affinity of compounds at GABAA γ1 subunit-containing receptors was measured by competition for [^3H]RO7239181 (67.3 Ci/mmol; Roche) binding to membranes from HEK293F cells (ThermoFisher R79007) expressing human (transiently transfected) receptors of composition α5β2γ1, α2β2γ1, α1β2γ1.
(§2) Harvested pellets from HEK293F cells expressing the different GABAA receptor subtypes were resuspended in Mannitol Buffer pH 7.2-7.4 (Mannitol 0.29 M, Triethylamine 10 mM, Acetic acid 10 mM, EDTA 1 mM plus protease inhibitors (20 tablets Complete, Roche Diagnostics Cat. No. 05 056 489 001 per liter)), washed two times and then resuspended at 1:10 to 1:15 dilution in the same buffer. Cell disruption was performed by stirring the suspension in a Parr vessel #4637 at 435 psi for 15 minutes, and then the suspensions were centrifuged at 1000×g for 15 minutes at 4° C. (Beckman Avanti J-HC: rotor JS-4.2). The supernatant (S1) was transferred in a 21 Schott flask and the pellet (P1) was resuspended with Mannitol Buffer up to 175 ml. The resuspended pellet was transferred into a 250 ml Corning centrifugal beaker and centrifuged at 1500×g for 10 minutes at 4° C. (Beckman Avanti J-HC: rotor JS-4.2). The supernatant (S1) was then transferred in the 21 Schott flask and the pellet was discarded. The supernatants (S1) were centrifuged in 500 ml Beckman polypropylene centrifugal beaker at 15′000×g for 30 minutes at 4° C. (Beckman Avanti J-20 XP; rotor JLA-10.500). The pellet (P2) was resuspended with Mannitol Buffer 1:1 and frozen at −80° C. The supernatant (S2) was centrifuged in 100 ml Beckman polypropylene centrifugal tubes at 48000×g for 50 minutes at 4° C. (Beckman Avanti J-20 XP; rotor JA-18). The supernatant (S3) was discarded and the pellet (P3) was resuspended with 1:1 Mannitol Buffer. The P2 and P3 protein concentration was determined with the BIORAD Standard assay method with bovine serum albumin as standard and measured on the NANO-Drop 1000. The membrane suspension was aliquots (500 μl per tube) and stored at −80° C. until required.
(§3) Membrane homogenates were resuspended and polytronised (Polytron PT1200E Kinematica AG) in Potassium Phosphate 10 mM, KCl 100 mM binding buffer at pH 7.4 to a final assay concentration determined with a previous experiment.
(§4) Assays were incubated to equilibrium for 1 hour at 4° C. and then, membranes were filtered onto unifilter (96-well white microplate with bonded GF/C filters preincubated 20-50 minutes in 0.3% Polyethylenimine) with a Filtermate 196 harvester (Packard BioScience) and washed 4 times with cold Potassium Phosphate 10 mM pH 7.4, KCl 100 mM binding buffer. After anhydrousing, filter-retained radioactivity was detected by liquid scintillation counting. Ki values were calculated using Excel-Fit (Microsoft) and are the means of two determinations.

[2] = biological target: human GABAA α1β3γ2 receptor (Homo sapiens (Human), UniProt P14867+P18507); assay: Radioligand binding assay, competition for [3H]Flumazenil, γ2-containing GABAA subtypes
Method: The affinity of compounds at GABAA γ2 subunit-containing receptors was measured by competition for [^3H]Flumazenil (81.1 Ci/mmol; Roche) binding to HEK293F cells expressing human (transiently transfected) receptors of composition α1β3γ2.
Harvested pellets from HEK293F cells expressing the different GABAA γ2 receptor subtypes were resuspended in Mannitol Buffer pH 7.2-7.4 and processed as described above for the cells expressing the GABAA γ1 subunit-containing receptors.
Assays were incubated to equilibrium for 1 hour at 4° C. and harvested onto GF/C uni-filters (Packard) by filtration using a Packard harvester and washing with ice-cold wash buffer (50 mM Tris; pH 7.5). After anhydrousing, filter-retained radioactivity was detected by liquid scintillation counting. Ki values were calculated using Excel-Fit (Microsoft) and are the means of two determinations.

[3] = biological target: human GABAA α5β2γ1 receptor (Homo sapiens (Human), UniProt P31644+Q8N1C3); assay: Radioligand binding assay, competition for [3H]RO7239181, γ1-containing GABAA subtypes; conditions: Table 1; [3H]RO7239181 displacement, membranes from HEK293F cells, mean of two determinations
Method: as §1, with “α1β2γ1. For better protein expression of the α2 subunit-containing receptors, the 28 amino acid long signal peptide (Met1 to Ala28) of the human GABAA α2 subunit was substituted by the 31 amino acid long signal peptide (Met1 to Ser31) of human GABAA α5 subunit.” for “α1β2γ1.”
as §2, §3
as §4, with “Radioligand binding assays were carried out in a volume of 200 μL (96-well plates) which contained 100 μL of cell membranes, [3H]RO7239181 at a concentration of 1.5 nM (α5β2γ1) or 20-30 nM (α1β2γ1, α2β2γ1) and the test compound in the range of [0.3-10000]=10^−9 M. Nonspecific binding was defined by 10×10^−6 (α5β2γ1) and 30×10^−6 M RO7239181 and typically represented less than 5% (α5β2γ1) and less than 20% (β1β2γ1, α2β2γ1) of the total binding. Assays” for “Assays”
Representative test results, obtained by the above described assay measuring binding affinity to HEK293 cells expressing human (h) receptors, are shown in the Table 1.

[4] = Ki h-GABAA α2β2γ1, Table 1, [3H]RO7239181 displacement, membranes from HEK293F cells, mean of two determinations
[5] = Table 1, Ki α1β3γ2 (nM)/Ki α2β2γ1 (nM)
[6] = Table 1, [3H]Flumazenil displacement, HEK293F cells, mean of two determinations, read-out: Ki h-GABAA α1β3γ2

SMILES	potentiation of the GABA-induced current (h-GABA-A α2β2γ1) [%]	Ki [3] [nM]	Ki [1, 4] [nM]	γ2/γ1 Selectivity Ratio [1, 5]	LogSel ([1]; Table 1)	Ki [2, 6] [nM]	other results
Cc1nnc2n1-c1ccc(Cl)cc1C(c1ccccc1Cl)=NC2 [Triazolam, reference compound]	~60	–	–	–	–	–	–
Cc1ncc2n1-c1ccc(Cl)cc1C(c1ccccc1F)=NC2 [Midazolam, reference compound]	~60	–	–	–	–	–	–
CN1C(=O)CN=C(c2ccccc2F)c2ccncc21 [RE-A, reference compound]	–	–	–	–	–	–	Ki ([1]; Ki h-GABAA α2β2γ1, Table 3, reference compounds comparison): 10200 nM; γ2/γ1 Selectivity Ratio ([1]; Table 3, Ki α1β3γ2/Ki α2β2γ1): 0.018; Ki [2]: 179 nM
C[C@@H]1N=C(c2c(F)cccc2F)c2c(cnc(C(F)(F)F)c2Cl)-n2nc(C(=O)N[C@H]3C[C@H](O)C3)nc21 [Example 24, (7S)-11-chloro-9-(2,6-difluorophenyl)-N-trans-(3-hydroxycyclobutyl)-7-methyl-12-(trifluoromethyl)-2,3,5,8,13-pentazatricyclo[8.4.0.02,6]tetradeca-1(10),3,5,8,11,13-hexaene-4-carboxamide]	–	2.8	72.6	115	2.06	8380	Ki ([1]; Ki h-GABAA α2β2γ1, Table 2, [3H]RO7239181 displacement): 72.6 nM
C[C@@H]1N=C(c2c(F)cccc2F)c2c(cnc(C(F)(F)F)c2Cl)-n2nc(C(=O)N[C@H]3C[C@@H](O)C3)nc21 [Example 23, (7S)-11-chloro-9-(2,6-difluorophenyl)-N-cis-(3-hydroxycyclobutyl)-7-methyl-12-(trifluoromethyl)-2,3,5,8,13-pentazatricyclo[8.4.0.02,6]tetradeca-1(10),3,5,8,11,13-hexaene-4-carboxamide]	–	9.7	–	144	2.16	14500	Ki ([1]; Table 1, [3H]RO7239181 displacement, membranes from HEK293F cells, mean of two determinations, read-out: Ki h-GABAA α2β2γ1): 101 nM; Ki ([1]; Table 2, [3H]RO7239181 displacement, read-out: Ki h-GABAA α2β2γ1): 101 nM
Cc1cn2c(n1)[C@H](C)N=C(c1c(F)cccc1F)c1c-2cnc(C(F)(F)F)c1Cl [Example 18, (7S)-11-chloro-9-(2,6-difluorophenyl)-4,7-dimethyl-12-(trifluoromethyl)-2,5,8,13-tetrazatricyclo[8.4.0.02,6]tetradeca-1(10),3,5,8,11,13-hexaene]	–	5.9	54.5	77	1.88	4170	Ki [1]: 131 nM
